In patent US6929685B2, “Alkylamine derivatives as antifouling agents” (Bayer Atiengesellschaft, priority 2001, dated 2005):

Legend:
Settings in all cases: Dutch harbor, sea water
fouling organisms = assay: Raft panel static immersion test of antifouling paints: overall; design: key: good (G); satisfactory (S); failure (F)
Excerpt: (§1) The prepared paints have been evaluated on can stability, adhesion and film defects. The antifouling performance has been tested by application of the paints on raft panels. At first the steel panels had been protected with a standard anticorrosive system for marine environments (300 μm in dft). The to be tested antifouling paint had been applied in 2 layers with a total dry film thickness between 200 and 300 μm. Finally the panels were subjected to a static immersion test on rafts at sea harbors in Holland. The paints were inspected for the presence of fouling (% of area covered with fouling organisms) and of film defects every two months. The tested paint formulations are represented in Table 1.
(§2) Further explanations to Table 1: • 1. Model coatings of type 1 (MC-1A/B/C) are for the evaluation of the algicidal properties of the claimed structures at three different representative weight-% next to 35% cuprous oxide. Good performing references are model coating MC-2 and MC-3 [35% cuprous oxide+3% Seanine (MC-2) or 35% cuprous oxide+3% Irgarol (MC-3)]. Base level references are “cuprous oxide only” formulations [cuprous oxide only (35% (MC4) and 50% level (MC-5)]. • 2. Model coatings of type 6 and 7 are for the evaluation of the activity of the claimed structures against “hard fouling” in combination with two different types of algicides: claimed structure (1/2/4%; MC-6-A/B/C)+3% Seanine or claimed structure (1/2/4%; MC-7-A/B/C)+3% Irgarol). Base level references are “algicide only” formulations with 3% Seanine (MC-8) or 3% Irgarol (MC-9).
(§3) 3. Model coatings of type 10 (MC-10A/B) evaluate the total spectrum of biocidal activity by using the claimed structure as only biocide at 2 levels (4 and 8 w %). Good performing references are “cuprous oxide only” formulations [cuprous oxide 35% (MC-4) and 50% (MC-5)]. As blank serves model coating 11 (MC-1 1) containing no biocide at all.
(§4) The claimed structures were tested at several levels of dosage with and without an algicide as co-biocide. The following formulations were used for comparison: formulations with cuprous oxide, formulations with cuprous oxide and commercial co-biocides, a blank and two formulations that only contained the co-biocide and finally a commercial tributyltin-releasing self polishing system.
(§5) An even better protection can be obtained by combining claimed structures with co-biocides like the algicides that are commonly used for antifoulings.

slime = assay: Raft panel static immersion test of antifouling paints: slime; design: key: G: Not present; Some light slime; F: Overall covered
Excerpt: as §1, §2, §3, §4, §5

algae = assay: Raft panel static immersion test of antifouling paints: algae; design: key: G: Not present; Some light slime; F: Overall covered
Excerpt: as §1, §2, §3, §4, §5

hard fouling = assay: Raft panel static immersion test of antifouling paints: hard fouling; design: key: G: Not present; Some light slime; F: Overall covered
Excerpt: as §1, §2, §3, §4, §5

[1] = model coating 1A: 35% Cu2O + 1% of compound
[2] = model coating 1B: 35% Cu2O + 2% of compound
[3] = model coating 1C: 35% Cu2O + 3% of compound
[4] = model coating 6A: 1% of compound + 3% Seanine
[5] = model coating 6B: 2% of compound + 3% Seanine
[6] = model coating 6C: 4% of compound + 3% Seanine
[7] = model coating 7A: 1% of compound + 3% Irgarol
[8] = model coating 7B: 2% of compound + 3% Irgarol
[9] = model coating 7C: 4% of compound + 3% Irgarol
[10] = model coating 10A: 4% of compound as only biocide
[11] = model coating 10B: 8% of compound as only biocide

SMILES | Performance (1 yr immersed) Overall (fouling organisms; [1]) | Performance (1 yr immersed) Overall (fouling organisms; [2]) | Performance (1 yr immersed) Overall (fouling organisms; [3]) | Performance (1 yr immersed) Overall (fouling organisms; [4]) | Performance (1 yr immersed) Overall (fouling organisms; [5]) | Performance (1 yr immersed) Overall (fouling organisms; [6]) | Performance (1 yr immersed) Overall (fouling organisms; [7]) | Performance (1 yr immersed) Overall (fouling organisms; [8]) | Performance (1 yr immersed) Overall (fouling organisms; [9]) | Performance (1 yr immersed) Overall (fouling organisms; [10]) | Performance (1 yr immersed) Overall (fouling organisms; [11]) | Performance (1 yr immersed) Slime (slime; [1]) | Performance (1 yr immersed) Slime (slime; [2]) | Performance (1 yr immersed) Slime (slime; [3]) | Performance (1 yr immersed) Slime (slime; [4]) | Performance (1 yr immersed) Slime (slime; [5]) | Performance (1 yr immersed) Slime (slime; [6]) | Performance (1 yr immersed) Slime (slime; [7]) | Performance (1 yr immersed) Slime (slime; [8]) | Performance (1 yr immersed) Slime (slime; [9]) | also measured
COC(=O)NCCCCCCBr [Compound 2, N-methoxycarbonyl-6-bromohexylamine] | S | S | G | F | S | G | F | S | S | F | S | S | S | G | S | S | G | S | S | S | Performance (1 yr immersed) Slime (slime; [10]): F; Performance (1 yr immersed) Slime (slime; [11]): S; Performance (1 yr immersed) Algae (algae; [2]): G; Performance (1 yr immersed) Algae (algae; [3]): G; Performance (1 yr immersed) Algae (algae; [4]): G; Performance (1 yr immersed) Algae (algae; [5]): G; Performance (1 yr immersed) Algae (algae; [6]): G; Performance (1 yr immersed) Algae (algae; [7]): G; Performance (1 yr immersed) Algae (algae; [8]): G; Performance (1 yr immersed) Algae (algae; [9]): G; Performance (1 yr immersed) Hard fouling (hard fouling; [1]): G; Performance (1 yr immersed) Hard fouling (hard fouling; [2]): G; Performance (1 yr immersed) Hard fouling (hard fouling; [3]): G; Performance (1 yr immersed) Hard fouling (hard fouling; [6]): G; Performance (1 yr immersed) Hard fouling (hard fouling; [11]): G
CCCCCCCCCCCNC=O [Compound 9, N-formyl-1-aminoundecane] | S | S | G | F | S | G | F | S | S | F | S | S | S | G | S | S | G | S | S | S | Performance (1 yr immersed) Slime (slime; [10]): F; Performance (1 yr immersed) Slime (slime; [11]): S; Performance (1 yr immersed) Algae (algae; [2]): G; Performance (1 yr immersed) Algae (algae; [3]): G; Performance (1 yr immersed) Algae (algae; [4]): G; Performance (1 yr immersed) Algae (algae; [5]): G; Performance (1 yr immersed) Algae (algae; [6]): G; Performance (1 yr immersed) Algae (algae; [7]): G; Performance (1 yr immersed) Algae (algae; [8]): G; Performance (1 yr immersed) Algae (algae; [9]): G; Performance (1 yr immersed) Hard fouling (hard fouling; [1]): G; Performance (1 yr immersed) Hard fouling (hard fouling; [2]): G; Performance (1 yr immersed) Hard fouling (hard fouling; [3]): G; Performance (1 yr immersed) Hard fouling (hard fouling; [6]): G; Performance (1 yr immersed) Hard fouling (hard fouling; [11]): G
